# Reference: patent US5039665A, “Use of fructose-1,6-diphosphate for treating myocardial infarction” (priority 1990, dated 1991)
# Key:
# erythrocytes = assay: incubation of erythrocytes: ATP and 2-3 DPG content; assay type: cell-based; conditions: equimolar, same conditions
# Excerpt: (§1) To allow for a broader and more complete interpretation of the results, a small paragraph will be devoted to the ability of FDP to cross the cellular membranes.
# rabbit ileum = assay: force of contraction of isolated rabbit ileum; conditions: added to perfusate
# Excerpt: as §1
# heart preparation = conditions: infusion of Locke's solution plus sugar; cited from earlier work
SMILES,ATP content in the erythrocytes (erythrocytes),force of contraction (rabbit ileum),"amplitude and frequency of heart beats, lactic acid, pH and potassium during recovery (heart preparation)"
O=C[C@H](O)[C@@H](O)[C@H](O)[C@H](O)COP(=O)(O)O [glucose-6-phosphate],failed to increase the ATP content,fail to produce the same effect,
O=C(CO)[C@@H](O)[C@H](O)[C@H](O)COP(=O)(O)O [fructose-6-phosphate],failed to increase the ATP content,fail to produce the same effect,
O=P(O)(O)O [inorganic phosphate],failed to increase the ATP content,fail to produce the same effect,
O=C(CO)[C@@H](O)[C@H](O)[C@H](O)CO [fructose],failed to increase the ATP content,fail to produce the same effect,no significant difference
OC[C@H]1O[C@@](CO)(O[C@H]2O[C@H](CO)[C@@H](O)[C@H](O)[C@H]2O)[C@@H](O)[C@@H]1O [sucrose],,,no significant difference
